Reference: patent publication US20040106663A1, “Inhibitors of fungal invasion” (priority 2002, published 2004)
Values joined by “and” are separate entries in the source; they are usually repeats but may differ in a detail not shown here. Equal values may be shown once. Read-outs that look alike come from different tables or passages of the source. Marks after values point to notes of the source that are not given here.

Columns and labels:
[1] = system: logarithmic phase C. albicans (MC295) containing HWP1-lacZ; test: microbe, parasite or virus in culture; format: cell-based; conditions: Candida albicans
[2] = system: stationary phase C. albicans (MC295) containing HWP1-lacZ; test: microbe, parasite or virus in culture; format: cell-based, Candida albicans
[3] = system: HepG2 human hepatoma cells; conditions: 4 h
Method: Mammalian Cell Toxicity Assay
To investigate the toxicity of Compound I for mammalian cells, human hepatoma cell line HepG2 were exposed to Compound I and the (LD50) was determined. Briefly, HepG2 human hepatoma cells (American Type Culture Collection, Bethesda Md.) were plated at 1×10^5 cells/well in tissue culture treated 96 well plates and incubated at 5% CO2, 37° C. for 18 h prior to initiation of the assay. The compound stocks at 100 mM in DMSO were added to DM (defined media, media without serum with added insulin, selenium and transferrin) at an initial concentration of 1000 μM and serially diluted 1 to 3 in DM in a 96 well plate. For 20 μL of a test solution, 3.5 μL sample is added to 346.5 μL media for an initial concentration of 1000 μM. These dilutions are added to the cells at final sample concentrations between 0.5 and 1000 μM (<1% DMSO). Controls included: media only (negative control) and 0.1% Triton-X (positive control). Control drugs (tamoxifen and 2-thiouracil) were also used to verify each assay. The samples were incubated at 37° C. in humidified 5% CO2 atmosphere for 4 h.
The plate was read directly on the Tecan Spectrafluor Plus reader in the fluorescent mode at excitation 530 nm and emission 595 nm. The blank was subtracted from the total fluorescence to give the net fluorescence for that well. This total was compared to the control in the absence of the compound. An LD50 (concentration at 50% of lethal dose) is calculated as the concentration that leads to a response of 50% compared to the control cells. Thus, cytotoxicity is measured as percent of inhibition of cell viability as determined by the Alamar Blue assay.

C. albicans = C. albicans overnight growth inhibition; format: cell-based, Candida albicans; parameters: concentration or dose not given beside the values
C. albicans (MC303) = test: C. albicans morphology assay (hyphae scored 1-5); conditions: scale 1-5; for C. albicans Phenotype Rating: invasion morphology phenotype, test compound at 10 μM
Method: In this assay, described in greater detail below, the morphology of cells was assessed and scored on a 1-5 scale. A score of 1 was assigned to non-hyphal cells, “yeast-like” cells and budding cells, and a score of 5 was assigned to cells having many, relatively long (wild-type) hyphae.
A frozen stock culture was prepared by streaking C. albicans (MC303: ura3 Δ:: imm434/ura3Δ:: imm434 arg4::hisG/arg4::hisG ade2:: URA3:.pTEF1-lacZ/ADE2 hisl::hisG/HIS1 gal1::ARG4/GAL1) cells on a YPD agar plate and grown at 30° C. for 14-18 h. An isolated colony was added to 5 mL of YPD broth and grown on a roller drum (60 rpm) for 14-18 h at 30° C. Next, 600 μL of culture were aliquotted into 1 mL of 25% glycerol, and the tubes are stored at −80° C.
Frozen MC303 C. albicans cell stock was struck for isolation of a single colony using a sterile loop on a YPD agar plate and grown at 30° C. for 14-18 h. A single colony was inoculated into 5 mL of YPD in a test tube and grown on a roller drum (60 rpm) for 2 days at 30° C. to late stationary phase (OD600˜30). For the assay, this stock was diluted to 2.5×10^5 cells/mL to make a 10× stock. Next, 10 μL of this cell stock was added to 80 μL of Inducing Media and 10 μL of 10× compound stock or DMSO in a Coming, tissue-culture treated, flat-bottom, microtiter plate. The plate was incubated at 37° C. for 24 h. Next, 10 μL of formaldehyde (37%) was added to each well and the cells were fixed for 10 min. The liquid was gently decanted from the plate and each well was examined under a microscope. Each well was photographed and observed cells are scored on a scale of 1-5. […] A 1 indicates cells are non-hyphal with only “yeast-like” cells and budding cells.
Scores of 2, 3, and 4 indicate shorter length or reduced quantity of hyphae when compared with WT (2 being very near non-hyphal and 4 being close to WT).

[4] = read-out: C. albicans LOG IC50, logarithmic phase growth invasion assay (converted)
[5] = Candida albicans, read-out: C. albicans STAT IC50, stationary phase growth invasion assay

Structure (SMILES) | IC50 [1, 4] | IC50 [2, 5] | AFDD Mammalian Cytotoxicity LD50 [3] | C. albicans Overnight Growth Inhibition (C. albicans) | C. albicans Phenotype Rating (C. albicans (MC303)) | IC50 ([1]; read-out: concentration inhibiting invasion of logarithmic phase C. albicans by 50%, logarithmic phase) | IC50 ([2]; Candida albicans, read-out: concentration inhibiting invasion of stationary phase C. albicans by 50%, stationary phase) | mammalian cell LD50 [3] | average morphology score (C. albicans (MC303); 10 μM) | IC50 ([2]; read-out: C. albicans STAT IC50, stationary phase growth invasion assay)
Cc1ccc(-c2ccc(S(=O)(=O)Nc3cc(C)on3)cc2)cc1 | 41 nM | > 20000 nM | >1000 µM | 12.3% | – | – | – | – | – | –
Cc1cc(NS(=O)(=O)c2ccc(-c3ccc(F)c(Cl)c3)cc2)no1 | 192 nM | > 20000 nM | – | 18.6% | 5 | – | – | – | – | –
CCc1ccc(S(=O)(=O)Nc2cc(C)on2)cc1 | 1610 nM | > 20000 nM | >1000 µM | −78.9% | 4 | – | – | – | – | –
Cc1cc(NS(=O)(=O)c2ccc(OC(F)(F)F)cc2)no1 | 10700 nM | > 20000 nM | >1000 µM | 4.0% | 4 | – | – | – | – | –
Cc1cc(NS(=O)(=O)c2ccc(CCCCCCCCCCO)cc2)no1 | 17300 nM | > 20000 nM | – | 71.0% | 5 | – | – | – | – | –
Cc1cc(NS(=O)(=O)c2ccc(-c3ccc(F)cc3)cc2)no1 | 294 nM | – | 983.2 µM | 12.7% | – | – | – | – | – | –
Cc1cc(NS(=O)(=O)c2ccc(OC(C)C)cc2)no1 | 3600 nM | > 20000 nM | – | 0.8% | 5 | – | – | – | – | –
Cc1cc(NS(=O)(=O)c2ccc(C(C)(C)C)cc2)no1 | 1200 nM | > 20000 nM | >1000 µM | −107.0% | 5 | – | – | – | – | –
CCCCc1ccc(S(=O)(=O)Nc2cc(C)on2)cc1 [Compound I] | – | – | – | – | – | 0.0049 µg/mL | 0.85 µg/mL | greater than 1000 μM | 1 | –
CCCCc1cc(F)c(S(=O)(=O)Nc2cc(C)on2)cc1F | 87 nM | > 20000 nM | – | −14.5% | 5 | – | – | – | – | –
Cc1cc(NS(=O)(=O)c2ccc(CC3C4CCC(C4)C3(C)C)cc2)no1 (centres unmarked) | 18000 nM | > 20000 nM | – | −0.6% | 5 | – | – | – | – | –
Cc1cc(NS(=O)(=O)c2ccc(-c3cccc(Cl)c3Cl)cc2)no1 | 3010 nM | > 20000 nM | – | −0.3% | 5 | – | – | – | – | –
Cc1cc(NS(=O)(=O)c2ccc(-n3cccn3)cc2)no1 | 2100 nM | > 20000 nM | – | −13.3% | 5 | – | – | – | – | –
CCCCCc1ccc(S(=O)(=O)Nc2cc(C)on2)cc1 | 9.28 nM | 1410 nM | – | −49.4% | 4 | – | – | – | – | –
Cc1cc(NS(=O)(=O)c2ccc(-c3cccc(Cl)c3)cc2)no1 | 110 nM | > 20000 nM | – | 7.7% | 5 | – | – | – | – | –
Cc1cc(NS(=O)(=O)c2ccc(-c3ccc(F)cc3F)s2)no1 | 3360 nM | > 20000 nM | – | −0.6% | 5 | – | – | – | – | –
Cc1cc(NC(=O)Nc2ccc(S(=O)(=O)Nc3cc(C)on3)cc2)no1 | 5160 nM | > 20000 nM | – | −25.4% | 5 | – | – | – | – | –
Cc1cc(NS(=O)(=O)c2ccc(-c3ccc(C)s3)cc2)no1 | 50 nM | 4900 nM | – | 22.4% | – | – | – | – | – | –
Cc1cc(NS(=O)(=O)c2ccc(-c3ccccc3C)cc2)no1 | 56 nM | > 20000 nM | – | 4.8% | 5 | – | – | – | – | –
Cc1cc(NS(=O)(=O)c2ccc(N3CCCC3)cc2)no1 | 91 nM | 3730 nM | – | 4.4% | 4 and 5 | – | – | – | – | –
Cc1cc(NS(=O)(=O)c2ccc(-c3ccccc3)cc2)no1 | 89.3 nM | – | >1000 µM | 19.5% | 2 and 5 | – | – | – | – | –
Cc1cc(NS(=O)(=O)c2ccc(Oc3ccccc3)cc2)no1 | 5210 nM | > 20000 nM | – | 4.4% | 5 | – | – | – | – | –

Structure (SMILES) | IC50 [1, 4] | IC50 [2, 5] | AFDD Mammalian Cytotoxicity LD50 [3] | C. albicans Overnight Growth Inhibition (C. albicans) | C. albicans Phenotype Rating (C. albicans (MC303)) | IC50 ([1]; read-out: concentration inhibiting invasion of logarithmic phase C. albicans by 50%, logarithmic phase) | IC50 ([2]; Candida albicans, read-out: concentration inhibiting invasion of stationary phase C. albicans by 50%, stationary phase) | mammalian cell LD50 [3] | average morphology score (C. albicans (MC303); 10 μM) | IC50 ([2]; read-out: C. albicans STAT IC50, stationary phase growth invasion assay)
Cc1cc(NS(=O)(=O)c2ccc(-c3cc4ccccc4o3)cc2)no1 | 320 nM | 2610 nM | – | 23.8% | 2* | – | – | – | – | –
Cc1cc(NS(=O)(=O)c2ccc(OCC3CC3)cc2)no1 | 51 nM | 11500 nM | – | −7.3% | 5 | – | – | – | – | –
CCCCc1ccc(S(=O)(=O)Nc2cc(C)on2)cc1 [drawing 232] | 6.03 nM | 898 nM | >1000 µM | 19.4% | – | – | – | – | – | –
Cc1cc(NS(=O)(=O)c2ccc(-c3nccs3)cc2)no1 | 2800 nM | > 20000 nM | – | 32.7% | 3 and 5 | – | – | – | – | –
CCCN(CCC)c1ccc(S(=O)(=O)Nc2cc(C)on2)cc1 | 2790 nM | > 20000 nM | – | −2.8% | 5 | – | – | – | – | –
Cc1cc(NS(=O)(=O)c2ccc(-c3cc4ccccc4s3)cc2)no1 | 1760 nM | > 20000 nM | – | −1.8% | 4 and 5 | – | – | – | – | –
Cc1cc(NS(=O)(=O)c2ccc(-c3ccc(F)c(F)c3)cc2)no1 | 1100 nM | > 20000 nM | – | 8.8% | 5 | – | – | – | – | –
Cc1cc(NS(=O)(=O)c2ccc(-c3ccccc3F)cc2)no1 | 350 nM | > 20000 nM | – | −4.3% | 5 | – | – | – | – | –
Cc1cc(NS(=O)(=O)c2ccc(-c3sccc3C)cc2)no1 | 320 nM | > 20000 nM | – | 11.5% | 5 | – | – | – | – | –
Cc1cc(NS(=O)(=O)c2ccc3ccccc3c2)no1 | 2260 nM | > 20000 nM | – | −14.7% | 5 | – | – | – | – | –
CCCSCc1ccc(S(=O)(=O)Nc2cc(C)on2)cc1 | 656 nM | > 20000 nM | – | −21.3% | 5 | – | – | – | – | –
Cc1cc(NS(=O)(=O)c2ccc(C3CCCC3)cc2)no1 | 110 nM | 19800 nM | – | 13.9% | 5 | – | – | – | – | –
CCc1ccc(-c2ccc(S(=O)(=O)Nc3cc(C)on3)cc2)cc1 | 115 nM | > 20000 nM | – | −14.4% | 5 | – | – | – | – | –
Cc1cc(NS(=O)(=O)c2ccc(-c3ccc4c(c3)OCO4)cc2)no1 | 674 nM | > 20000 nM | >1000 µM | – | – | – | – | – | – | –
CCCCOc1ccc(S(=O)(=O)Nc2cc(C)on2)cc1 | 42 nM | 11700 nM | >1000 µM | −6.4% | – | – | – | – | – | –
Cc1cc(NS(=O)(=O)c2ccc(-c3ccc(F)cc3F)cc2)no1 [drawing 258] | – | – | >1000 µM | −3.6% | – | – | – | – | – | –
Cc1cc(NS(=O)(=O)c2ccc(-c3ccc(F)c(C)c3)cc2)no1 | 116 nM | – | 601.4 µM | 2.6% | – | – | – | – | – | –
CCCCC(F)(F)c1ccc(S(=O)(=O)Nc2cc(C)on2)cc1 | 2020 nM | > 20000 nM | – | −1.6% | 5 | – | – | – | – | –
Cc1cc(NS(=O)(=O)c2ccc(-c3cc(Cl)cc(Cl)c3)cc2)no1 | 1480 nM | > 20000 nM | – | −3.1% | 5 | – | – | – | – | –
CCCCc1ccc(S(=O)(=O)Nc2ccon2)cc1 | 1420 nM | 17400 nM | – | 18.3% | 5 | – | – | – | – | –
CCCNc1ccc(S(=O)(=O)Nc2cc(C)on2)cc1 [drawing 266] | 360 nM | 10400 nM | >1000 µM | −17.9% | – | – | – | – | – | > 20000 nM
